Reference: US10064858B2, “Methods and compositions for treating bacterial infections with iron chelators” (THE UNITED STATES OF AMERICA, AS REPRESENTED BY THE …, priority 2011, dated 2018)

Experiments:
[1] = tested on: Acinetobacter baumannii strain 5711 (AB5711); assay: Growth (OD600) of AB5711 in low iron media with chelators, with or without FeCl3; format: cell-based; conditions: for bacterial growth (OD600 growth curves): AB5711, low iron media, 100 μM or 200 μM chelator added after 4 hr, 24 hr
Protocol: Acinetobacter baumannii strain 5711 (AB5711) was grown overnight in LB media and sub-cultured into low iron media. The tested iron chelators were deferoxamine (DFO), deferiprone (DFP), 2,2-dipyridyl, and VK28. The iron chelators were added after 4 hr of growth.
Bacterial growth was estimated by absorption at OD600 every 4 hr for 24 hr. Optical density (OD) at 600 nm (OD600) as measured by a spectrophotometer is a widely used technique known by one skilled in the art to estimate the total number of bacterial cells present in a broth culture (CFU/ml). The exact amount of OD produced by a culture will depend on the concentration of cells present, the species and strain of microbe present, the growth conditions used, and the wavelength of the light being transmitted. Thus, the relationship between OD and cell concentrations will depend on the specific strain and growth conditions studied. For example, the OD600 of 1 for E. coli is about 1×10^9 CFU/ml.
This example provides further evidence that the removal of iron is responsible for bacterial growth inhibition. A. baumannii isolate 5711 was grown in low iron M9 media supplemented with 0 μM, 10 μM, or 100 μM FeCl3 with and without the addition of 200 μM VK28 following 4 hr of growth. Growth was estimated by absorbance at 600 nm every 4 hr for 24 hr.
This example provides further evidence that the removal of iron is responsible for bacterial growth inhibition. A. baumannii isolate 5711 was grown in low iron M9 media supplemented with 0 μM, 10 μM, 100 μM, or 1000 μM FeCl3 with and without the addition of 50 μg/ml of VK28 following 4 hr of growth. Growth was estimated by absorbance at 600 nm after 20 hours.

[2] = tested on: Bioluminescent AB0057; assay: Bioluminescent AB0057 challenged with iron chelators; format: cell-based, Acinetobacter baumannii; conditions: 100 μm; 4 hours; low iron media
From the text: This example studies bioluminescent A. baumannii challenged with iron chelators. AB0057 is a strain of Acinetobacter baumannii available from Robert Bonomo, Case Western Reserve University, Cleveland, Ohio.
As a precursor to conducting this in vitro assay, AB0057 was transformed with a bioluminescent plasmid. The p16Slux plasmid is illustrated in FIG. 38, and further details regarding its development and use are set forth in Christian U. Riedel et al., “Construction of p16Slux, a Novel Vector for Improved Bioluminescent Labeling of Gram-Negative Bacteria,” Appl. Environ. Microbiol. 2007 November; 73(21): 7092-7095.
Bioluminescent AB0057 were grown overnight in LB media and sub-cultured into low iron media in a 96-well plate containing varying concentrations of iron chelators for 4 hours. Bacterial growth was measured by bioluminescence (relative light units). The iron chelators VK28 and DFO were tested along with chelators DIP, ETTA, and EDTA as controls. The chelators were tested a concentrations of 0 μM, […], 3.13 μM, 6.25 μM, 12.5 μM, 25 μM, 50 μM, and 100 μM.

[3] = tested on: AB5075; assay: Time-kill assay in M9 minimal media; format: cell-based, A. baumannii; conditions: 24 hours
Protocol: Reductions in colony forming units (CFU)/mL were determined over time (time-kill assay) after exposure to VK28 and deferiprone (DFP), the two iron chelators that performed best in MIC assays when compared to controls. To better represent the iron content found in the human body, MIC and time-kill assays were also determined in minimal media and tissue culture media. Time-Kill assays were performed as previously described in G. P. Neupane et al., “In vitro time-kill activities of ciprofloxacin alone and in combination with the iron chelator deferasirox against Vibrio vulnificus,” European Journal of Clinical Microbiology and Infectious Diseases, 407-410 (2010); and R. L. White, et al., “Comparison of Three Different In Vitro Methods of Detecting synergy: Time-Kill, Checkerboard, and E test,” Journal of Antimicrobial Agents and Chemotherapy, 1914-1918 (1996). Initial inocula, for example 1×10^6 CFU/mL or 1×10^7 CFU/mL were challenged with iron chelator with and/or without an antibiotic. Cells were allowed to grow in CAMHB at 37° C. for 24 hours. Time-kill results were analyzed by determining the change in log 10 numbers of CFU/ml at 0, 6, and 24 h, compared to counts at 0 h. Antimicrobials were considered bactericidal at the lowest concentration that reduced the size of the original inoculum by >3 log 10 CFU/ml (99.9%) over each of the time periods and were considered bacteriostatic if the inoculum's size was reduced by 0 to <3 log 10 CFU/ml.
The untreated sample (♦) had greater than 1×10^9 CFU/mL after 9 hours that was sustained at 24 hours.

[4] = tested on: MRSA ATCC SA43300; assay: Time-kill assay in CAMHB; format: cell-based, S. aureus; conditions: 1×MIC and 2×MIC VK28
Protocol: Reductions in colony forming units (CFU)/mL were determined over time (time-kill assay) after exposure to VK28 and deferiprone (DFP), the two iron chelators that performed best in MIC assays when compared to controls. To better represent the iron content found in the human body, MIC and time-kill assays were also determined in minimal media and tissue culture media. Time-Kill assays were performed as previously described in G. P. Neupane et al., “In vitro time-kill activities of ciprofloxacin alone and in combination with the iron chelator deferasirox against Vibrio vulnificus,” European Journal of Clinical Microbiology and Infectious Diseases, 407-410 (2010); and R. L. White, et al., “Comparison of Three Different In Vitro Methods of Detecting synergy: Time-Kill, Checkerboard, and E test,” Journal of Antimicrobial Agents and Chemotherapy, 1914-1918 (1996). Initial inocula, for example 1×10^6 CFU/mL or 1×10^7 CFU/mL were challenged with iron chelator with and/or without an antibiotic. Cells were allowed to grow in CAMHB at 37° C. for 24 hours. Time-kill results were analyzed by determining the change in log 10 numbers of CFU/ml at 0, 6, and 24 h, compared to counts at 0 h. […]

[5] = tested on: EC 35218, EC 43888; assay: Checkerboard assay, chelator with antibiotic (FIC); format: cell-based, E. coli
From the text: Drug interactions were initially evaluated with the “checkerboard” microdilution design, which provided a matrix of all drug combinations assayed in terms of fractions of the previously determined MIC. The checkerboard microdilution design is described in R. J. Tallarida, “Drug Synergism: Its Detection and Applications,” Journal of Pharmacology and Experimental Therapeutics, 865-872 (2001); and in R. L. White, et al., (1996), supra. FIGS. 39A and 39B show the wellplates having different concentrations of iron chelator and antibiotic, as labeled along the x-axis and y-axis.
The checkerboard assay was used to asses other combinations of iron chelators and antibiotics. The fractional inhibitory concentration index (FIC), which was calculated as follows: FIC=(MIC A in combination/MIC A)+(MIC B in combination/MIC B). Interaction was defined as synergistic if the FIC was <1.0, preferably <0.5, no interaction if the FIC was >1.0 and <4.0, and antagonistic if the FIC was >4.0. […]
The assay was run against the multi-drug resistant bacterial species AB 19606, AB 17978, EC 35218, and EC 43888.

[6] = tested on: A. baumannii strain AB19606; assay: Growth (OD600) with chelator, Rifampin or both; format: cell-based; conditions: 1.5×MIC Apo6619 in combination with ¾×MIC Rifampicin
Protocol: A. baumannii strain AB19606 was grown in CAMHB and challenged with 1.5×MIC compound 4 (Var) or 1.5×MIC Triapine (Tri) with or without 0.75×MIC Rifampin (Rif). Growth was estimated by absorbance at 600 nm (y-axis) at 0 or 24 hours.

[7] = EC 35218, in combination with Cefotaxine
[8] = EC 35218, in combination with Colisitin
[9] = EC 35218, in combination with Doxycycline
[10] = EC 35218, in combination with Rifampin
[11] = EC 43888, in combination with Cefotaxine
[12] = EC 43888, in combination with Colisitin
[13] = EC 43888, in combination with Doxycycline
[14] = EC 43888, in combination with Rifampin

For `OCCN1CCN(Cc2ccc(O)c3ncccc23)CC1` [VK28, 5-(4-(2-hydroxyethyl)piperazin-1-ylmethyl)-8-hydroxyquinoline], the “growth with FeCl3 added (absorbance at 600 nm after 20 hours)” value ([1]; 50 μg/ml of VK28 with 10, 100 or 1000 μM FeCl3, low iron M9 media) was “inhibition of growth can be rescued by the addition of FeCl3”, the “growth with free iron added back” value ([1]; 200 μM VK28 with 10 μM or 100 μM FeCl3, low iron M9 media) was “bacteria are rescued from the VK28 growth inhibition” and the “bacterial growth (OD600 growth curves)” value [1] was “reduced bacterial growth to a significant extent”. The “Bioluminescence (relative light units)” value [2] was “especially surprisingly lower”, the “time-kill course of CFU/ml” value ([3]; 0.5×MIC) was “slight inhibitory effect on the CFU/ml over the 24 hours” and the “time-kill course of CFU/ml” value ([3]; 1×MIC) was “slight inhibitory effect on the CFU/ml over the 24 hours”. For the same molecule, the “time-kill course of CFU/ml” value ([3]; 2×MIC) was “slight inhibitory effect on the CFU/ml over the 24 hours” and the time-kill effect [4] was “bacteriostatic (considered bacteriostatic if the inoculum's size was reduced by 0 to <3 log 10 CFU/ml)”.

Molecule `Cc1c(O)c(=O)ccn1C` [ApoL1, 3-hydroxy-1,2-dimethyl-4(1H)-pyridone] has an FIC [5, 7] of 1.25, an FIC [5, 8] of 1.25 and an FIC [5, 9] of 1.25. It also gave an FIC [5, 10] of 0.75, an FIC [5, 11] of 1.25 and an FIC [5, 12] of 1.25. For the same molecule, the FIC [5, 13] was 1.25, the FIC [5, 14] was 0.75 and the “bacterial growth (OD600 growth curves)” value [1] was “somewhat reduced bacterial growth”. The “time-kill course of CFU/ml” value ([3]; 0.5×MIC) was “slight reduction in CFU/ml levels over the 24 hour period”, the “time-kill course of CFU/ml” value ([3]; 1×MIC) was “slight reduction in CFU/ml levels over the 24 hour period” and the “time-kill course of CFU/ml” value ([3]; 2×MIC) was “sustained level of CFU/ml obtained over the 24 hour period”.

With `CNC(=O)c1c(O)c(=O)cc(C)n1C1CC1` [Apo6619, 1-cyclopropyl-3-hydroxy-6-methyl-4-oxo-1,4-dihydro-pyridine-2-carboxylic acid methylamide] the FIC [5, 7] was 1.25, the FIC [5, 8] was 1.25 and the FIC [5, 9] was 1.25. The FIC [5, 10] was 1.75, the FIC [5, 11] was 1.25 and the FIC [5, 12] was 1.25. For the same molecule, the FIC [5, 13] was 1.25, the FIC [5, 14] was 0.75 and the “growth (absorbance at 600 nm) at 24 hour” value [6] was “synergistic effect in inhibiting growth of AB19606”.
